Experimental data from patent US10798942B2, “Abiotic stress tolerance” (SYNGENTA PARTICIPATIONS AG, priority 2016, dated 2020).

Columns and labels:
rice plants [1] = assay: Further field trials 2016, rice variety ADT45 (7 trials); format: in vivo, Oryza sativa L.; settings: 10 g AI/ha; for Average yield increase compared to UTC (%): 7 trials 2016; for Yield at 14% MC (kg/ha): 7 trials 2016, mean daily min 25.13° C., max 34.13° C., UTC 6512
Procedure: Rice (Oryza sativa L.) of the local varieties ADT43, ADT45 and NK5251 were mechanically transplanted at four plants per hill with a plant spacing of 16 cm and a row spacing of 30 cm. All trials were performed in good level of water management. Fertilizer was applied in accordance with the best local practice across the trial area. Commercial treated seeds (no neonicotinoids as seed treatments) were used. Weed control was according to the best local practice in order to provide excellent weed control. Foliar fungicides and insecticides were applied according to common practice (no products that contain neonicotinoids or strobilurins). The trial design was a randomized bloc design. Plot size was 40 m^2 (4 m width [12 rows] by 10 m row length). Each trial had four replicates. In total, eleven trials were conducted. The compound of formula (Ia) was applied at a rate of 10 g ai/ha with small-plot hand-held boom sprayer. Application of the compound was as broadcast foliar spray in close proximity to leaf/canopy surface (25-40 cm distance from the crop). The used spray volumes were between 250 L/ha and 500 L/ha. Application was done either at panicle initiation (BBCH 30), at panicle formation (BBCH 32), at spikelet differentiation (BBCH 35), at meiosis (BBCH 39) or at heading (BBCH 51). In some experiments, the compound was applied twice (2×10 g ai/ha) at consecutive growth stages (i.e., BBCH 30+32, BBCH 32+35, BBCH 35+39, and BBCH 39+51). Tolerance to heat stress was assessed by measuring the following yield components: number of panicles per area, number of grains per panicle, percentage of ripened (filled) grains, number of tillers per area, percentage of productive tillers, grain yield per area at 14% moisture and thousand grain weight (TGVV). Further trials were conducted in the Tamil Nadu rice production area (India) in 2016 using the protocol as described above using rice variety ADT45, with treatment timings of panicle initiation (BBCH 30), panicle formation (BBCH 32), spikelet differentiation (BBCH 35) and meiosis (BBCH 39) only. The compound of formula (Ia) was applied at a rate of 10 g Al/ha. Grain yield was measured at 14% moisture content (MC).

rice plants [2] = assay: Field trials 2012-2015: tolerance of rice plants to heat stress (eleven trials); format: in vivo, Oryza sativa L.
Procedure: Field trials were setup during the hot season in India to test the effect of treatment with the compound of formula (Ia) on tolerance of rice plants to heat stress.
Trials were conducted in 2012, 2013, 2014, and 2015 in the Tamil Nadu rice production area (India) at the following sites: Kelamoor (lat. 12.42, long. 79.81), Kokkur (lat. 11.02, long. 79.32), Nachinargudi (lat. 11.01, long. 79.3), Velamoor (lat. 12.41, long. 79.8), Kumbakonam (lat. 10.97, long. 79.42) and Ramapuram (lat. 12.43, long. 79.83). The test sites had similar soil chemical properties, with an average soil pH of 6.6.
Rice (Oryza sativa L.) of the local varieties ADT43, ADT45 and NK5251 were mechanically transplanted at four plants per hill with a plant spacing of 16 cm and a row spacing of 30 cm. All trials were performed in good level of water management. Fertilizer was applied in accordance with the best local practice across the trial area.
Commercial treated seeds (no neonicotinoids as seed treatments) were used. Weed control was according to the best local practice in order to provide excellent weed control. Foliar fungicides and insecticides were applied according to common practice (no products that contain neonicotinoids or strobilurins).
The trial design was a randomized bloc design. Plot size was 40 m^2 (4 m width [12 rows] by 10 m row length). Each trial had four replicates. In total, eleven trials were conducted.
The compound of formula (Ia) was applied at a rate of 10 g ai/ha with small-plot hand-held boom sprayer. Application of the compound was as broadcast foliar spray in close proximity to leaf/canopy surface (25-40 cm distance from the crop). The used spray volumes were between 250 L/ha and 500 L/ha. Application was done either at panicle initiation (BBCH 30), at panicle formation (BBCH 32), at spikelet differentiation (BBCH 35), at meiosis (BBCH 39) or at heading (BBCH 51). In some experiments, the compound was applied twice (2×10 g ai/ha) at consecutive growth stages (i.e., BBCH 30+32, BBCH 32+35, BBCH 35+39, and BBCH 39+51).
Temperature was recorded nearby the trial sites. During and up to 14 days after the critical growth stages (i.e. from panicle initiation until heading) the mean daily minimum temperature was 25.1° C. (in the range of 22.6° C. to 27.1° C.) and the mean daily maximum temperature was 35.5° C. (in the range of 29.0 to 38.9° C.).
Tolerance to heat stress was assessed by measuring the following yield components: number of panicles per area, number of grains per panicle, percentage of ripened (filled) grains, number of tillers per area, percentage of productive tillers, grain yield per area at 14% moisture and thousand grain weight (TGVV).
The data in Tables 1 to 3 represent averages of the results from all eleven independent field trials, expressed as a percentage compared to the untreated control. The percentage increase or decrease was calculated for each trial relative to the untreated control for that trial, prior to calculating the mean percentage change across all 11 trials.

[3] = BBCH 30 at application, 10 g ai/ha foliar spray, mean of 11 trials, mean daily min 25.1° C., max 35.5° C.
[4] = BBCH 32 at application, 10 g ai/ha foliar spray, mean of 11 trials, mean daily min 25.1° C., max 35.5° C.
[5] = BBCH 35 at application, 10 g ai/ha foliar spray, mean of 11 trials, mean daily min 25.1° C., max 35.5° C.
[6] = BBCH 39 at application, 10 g ai/ha foliar spray, mean of 11 trials, mean daily min 25.1° C., max 35.5° C.
[7] = BBCH 51 at application, 10 g ai/ha foliar spray, mean of 11 trials, mean daily min 25.1° C., max 35.5° C.
[8] = maximum air temperature 35.1-36 ° C. during five days after application, applied between BBCH 30 and BBCH 51, 10 g ai/ha
[9] = maximum air temperature 36.1-37 ° C. during five days after application, applied between BBCH 30 and BBCH 51, 10 g ai/ha
[10] = maximum air temperature >37 ° C. during five days after application, applied between BBCH 30 and BBCH 51, 10 g ai/ha
[11] = maximum air temperature ≤35 ° C. during five days after application, applied between BBCH 30 and BBCH 51, 10 g ai/ha

**Q.** What does the source list for `COc1cccc(Nc2nc(F)nc3[nH]cnc23)c1` [formula (Ia)]?
**A.** Average yield increase compared to UTC (%) (rice plants [1]; BBCH 30 at application): +3.5%; Yield at 14% MC (kg/ha) (rice plants [1]; BBCH 30 at application): 6741 kg/ha; Average yield increase compared to UTC (%) (rice plants [1]; BBCH 32 at application): +4.7%; Yield at 14% MC (kg/ha) (rice plants [1]; BBCH 32 at application): 6820 kg/ha; Average yield increase compared to UTC (%) (rice plants [1]; BBCH 35 at application): +6.4%; Yield at 14% MC (kg/ha) (rice plants [1]; BBCH 35 at application): 6931 kg/ha; Average yield increase compared to UTC (%) (rice plants [1]; BBCH 39 at application): +3.6%; Yield at 14% MC (kg/ha) (rice plants [1]; BBCH 39 at application): 6757 kg/ha; Empty spikelets (% of UTC) (rice plants [2]; [3]): −7.5 % of UTC; TGW (% of UTC), thousand grain weight (rice plants [2]; [3]): +2.5 % of UTC; Grain yield (% of UTC) (rice plants [2]; BBCH 30 at application, 10 g ai/ha foliar spray, mean of 11 trials, mean daily min 25.1° C., max 35.5° C. during 14 days after application): +6.0 % of UTC; grain yield (as percent change compared to untreated controls) (rice plants [2]; BBCH 30 at application, maximum air temperature >36° C. during five days after application, 10 g ai/ha): +7.5%; grain yield (as percent change compared to untreated controls) (rice plants [2]; BBCH 30 at application, maximum air temperature ≤36° C. during five days after application, 10 g ai/ha): +1.6%; Empty spikelets (% of UTC) (rice plants [2]; [4]): −9.3 % of UTC; Grain yield (% of UTC) (rice plants [2]; [4]): +7.4 % of UTC; TGW (% of UTC), thousand grain weight (rice plants [2]; [4]): +2.2 % of UTC; grain yield (as percent change compared to untreated controls) (rice plants [2]; BBCH 32 at application, maximum air temperature >36° C. during five days after application, 10 g ai/ha): +9.0%; grain yield (as percent change compared to untreated controls) (rice plants [2]; BBCH 32 at application, maximum air temperature ≤36° C. during five days after application, 10 g ai/ha): +0.7%; Empty spikelets (% of UTC) (rice plants [2]; [5]): −3.8 % of UTC; Grain yield (% of UTC) (rice plants [2]; [5]): +4.7 % of UTC; TGW (% of UTC), thousand grain weight (rice plants [2]; [5]): +1.8 % of UTC; grain yield (as percent change compared to untreated controls) (rice plants [2]; BBCH 35 at application, maximum air temperature >36° C. during five days after application, 10 g ai/ha): +5.4%; grain yield (as percent change compared to untreated controls) (rice plants [2]; BBCH 35 at application, maximum air temperature ≤36° C. during five days after application, 10 g ai/ha): +1.8%; Empty spikelets (% of UTC) (rice plants [2]; [6]): −6.6 % of UTC; Grain yield (% of UTC) (rice plants [2]; [6]): +4.9 % of UTC; TGW (% of UTC), thousand grain weight (rice plants [2]; [6]): +1.6 % of UTC; grain yield (as percent change compared to untreated controls) (rice plants [2]; BBCH 39 at application, maximum air temperature >36° C. during five days after application, 10 g ai/ha): +5.1%; grain yield (as percent change compared to untreated controls) (rice plants [2]; BBCH 39 at application, maximum air temperature ≤36° C. during five days after application, 10 g ai/ha): +2.6%; Empty spikelets (% of UTC) (rice plants [2]; [7]): −3.5 % of UTC; Grain yield (% of UTC) (rice plants [2]; [7]): +2.8 % of UTC; TGW (% of UTC), thousand grain weight (rice plants [2]; [7]): +2.0 % of UTC; grain yield (as percent change compared to untreated controls) (rice plants [2]; BBCH 51 at application, maximum air temperature >36° C. during five days after application, 10 g ai/ha): +3.6%; grain yield (as percent change compared to untreated controls) (rice plants [2]; BBCH 51 at application, maximum air temperature ≤36° C. during five days after application, 10 g ai/ha): −0.7%; grain yield, effect in words (rice plants [2]; applied between BBCH 30 (panicle initiation) and BBCH 51 (heading)): an increase of grain yield was achieved; effect of treatment on rice grain yield, in words (rice plants [2]; daily maximum temperature above 36° C. at least one day after application but within 5 days after application): clear beneficial effect; Grain yield (% of UTC) (rice plants [2]; [8]): +1.1 % of UTC; TGW (% of UTC) (rice plants [2]; [8]): +2.3 % of UTC; Grain yield (% of UTC) (rice plants [2]; [9]): +5.5 % of UTC; TGW (% of UTC) (rice plants [2]; [9]): +2.2 % of UTC; Grain yield (% of UTC) (rice plants [2]; [10]): +6.6 % of UTC; TGW (% of UTC) (rice plants [2]; [10]): +1.8 % of UTC; Grain yield (% of UTC) (rice plants [2]; [11]): +0.9 % of UTC; TGW (% of UTC) (rice plants [2]; [11]): +1.4 % of UTC; heat stress protection, in words (rice plants [2]; plants at growth stages from panicle initiation (BBCH 30) to heading (BBCH 51) at the time of treatment): heat stress protection was achieved
